These results are taken from ChEMBL document CHEMBL1629502, “Labeling study of avidin by modular method for affinity labeling (MoAL)” (Bioorg Med Chem Lett, 2010).

Assay [1] is described as follows: Binding affinity to avidin at 80 uM by UV-vis spectroscopy.
Assay [2] can be described thus: Binding affinity to avidin by UV-vis spectroscopy.
Assay [3] in a line: Binding affinity to avidin at 1.6 mM by UV-vis spectroscopy.

Active and inactive are the calls of the source. No cut-off for these calls is given here.

In the case of `CN(C)CC(=O)OCCCCCCCCNC(=O)CCCCCNC(=O)CCCC[C@@H]1SC[C@@H]2NC(=O)N[C@@H]21`, the result in assay [1] was Active.

`CN(C)CC(=O)OCCCCCCCCCCNC(=O)CCCCCNC(=O)CCCC[C@@H]1SC[C@@H]2NC(=O)N[C@@H]21`: the outcome in assay [1] was Active.

Regarding `CN(C)S(=O)(=O)c1ccc(NCCN)c2nonc12`, in assay [2], the outcome was Active.

Consider `NCCNC(=O)COc1cc(S(=O)(=O)O)c2ccc3c(S(=O)(=O)O)cc(S(=O)(=O)O)c4ccc1c2c43`, for which the outcome in assay [3] was Active.

Regarding `NCc1ccc(Br)cc1`, the result in assay [2] was Active.

Consider `O=C(O)CCCC[C@@H]1SC[C@@H]2NC(=O)N[C@@H]21`, for which, in assay [2], the Ka amounted to 1e+15 M⁻¹.

As to `CN(C)CC(=O)OCCCCCNC(=O)CCCCCNC(=O)CCCC[C@@H]1SC[C@@H]2NC(=O)N[C@@H]21`, the outcome in assay [1] was Active.

On to `CN(C)CC(=O)OCCCCCCNC(=O)CCCCCNC(=O)CCCC[C@@H]1SC[C@@H]2NC(=O)N[C@@H]21`, for which the result in assay [1] was Active.

Regarding `COc1nc(Cl)nc(OC)n1`, in assay [3], the outcome was Active.

Regarding `CN(C)CC(=O)OCCCCNC(=O)CCCCCNC(=O)CCCC[C@@H]1SC[C@@H]2NC(=O)N[C@@H]21`, the outcome in assay [1] was Active.
